Data on 1 compound can be found in paper PMC10889512, “Pyrimidine Schiff Bases: Synthesis, Structural Characterization and Recent Studies on Biological Activities” (International Journal of Molecular Sciences, 2024).

For data set [1], the system named is AGS cells. Put plainly: Flow cytometry FDA/PI staining, cell viability, AGS. It counts as cell-based, human. As for the experimental part:
A detailed analysis of potential cytotoxic mechanisms has been performed only for the selected compound (4b) where the IC50 values under 100 µM were detected in the screening NR assay. Flow cytometry was performed on the A172 and AGS cell lines. Cells were incubated with compound 4b at IC50 for 24, 48, and 72 h before analysis. Fluorescein diacetate (FDA) and propidium iodide (PI) were used as indicators for viable and nonviable (necrotic) cells. Most of the events were captured in the first and the fourth quadrant, which represent viable and necrotic cells, respectively. […] Similar results were obtained for the AGS cell line (Figure 8B), where the viability was 60.95%/55.10%/44.99% after the same incubation periods, respectively. Some events occurred in the second quadrant, but it was difficult to unequivocally categorize them into viable or nonviable (apoptotic/necrotic) cell populations, and thus more sensitive dyes, able to distinguish between the types of cell death, were needed.
Two approaches for flow cytometry were used—FDA/PI staining to determine cell viability and annexin V/PI staining for cell death pathway determination.
For cell viability determination, cells were plated in 6-well plates at a density of 1 × 10^5 cells/well and incubated for 24 h at 37 °C, 5% CO2 and in a humidified atmosphere. Next, cells were treated with 4b at a concentration calculated as IC50 in neutral red uptake assay. After 24, 48, and 72 h incubation, the cells (either adhered or floating) were collected, centrifuged at 1600 rpm, and washed with PBS. FDA and PI stock solution at a 1 mM concentration were prepared in DMSO and H2O, respectively. After centrifugation and supernatant discarding, cells were stained with FDA at a final concentration of 1 µM prepared in PBS and incubated in the dark. After 15 min, they were centrifuged at 1600 rpm, resuspended in ice-cold PBS, and placed on ice. Samples were stained with 1 µM PI for 2 min before the cytometry evaluation. […]
For orientation: Flow cytometry measures light scatter and fluorescence of single cells or particles in a stream.

Data set [2] concerns A172 cells. The experiment in a line: Flow cytometry annexin V/PI staining, cell death pathway, A172. It counts as cell-based, human. The settings on record: A172, at IC50, 6, 18 and 24 h. On the procedure: To confirm the cell death pathway, another approach to flow cytometry was used. […] Annexin V is a specific PS-binding protein, and thus it is used to detect apoptotic cells. Very few events could be observed in the first and the second quadrant, which represent apoptotic cells. Most events occurred in the third and the fourth quadrant, where unstained and necrotic cells were located. The 24 h measurements after both flow cytometry approaches were consistent with each other. […] Two approaches for flow cytometry were used—FDA/PI staining to determine cell viability and annexin V/PI staining for cell death pathway determination. For cell death pathway determination, cells were plated in 6-well plates at a density of 3 × 10^5 cells/well. […] After 6, 18, and 24 h incubation, adhered and floating cells were harvested, centrifuged at 1600 rpm, and washed with PBS. Next, the cells were washed with 1× annexin-binding buffer, and after centrifugation, cells from each test set were suspended in 100 µL of 1× annexin-binding buffer. To each tube, 5 µL of Alexa Fluor 488-annexin V stain was added, and the cells were incubated in the dark. After 15 min incubation, the cells were centrifuged at 1600 rpm to remove the dye, then suspended in 1 mL of 1× binding buffer and kept on ice. Prior to analysis, cells were stained for 2 min with 1 µM PI. […]

The subject of data set [3] is S. aureus 43300. The experiment in a line: Antimicrobial activity assay, microdilution. Type of data set: cell-based, Staphylococcus aureus. The settings on record: concentration range from 0.5 µg/mL to 256 µg/mL. As for the experimental part: (§1) In vitro antimicrobial and antifungal activity was screened using microdilution and modified Richard’s medium. The assay was performed for compounds 4a, 4b, 4c, and 4d with seven reference microbial strains from ATTC (E. coli 25922, S. aureus 43300, K. pneumoniae 700603, A. baumannii 19606, P. aeruginosa 27853, E. faecalis 29212, and C. albicans 10231).
(§2) Seven reference strains from the ATCC collection (Escherichia coli 25922, Staphylococcus aureus 43300, Klebsiella pneumoniae 13883, Acinetobacter baumannii 19606, Pseudomonas aeruginosa 27853, Enterococcus faecalis 29212, and Candida albicans 10231) were used. The assay was performed according to a modified version of Richard et al.’s protocol and ISO standards 20776-1:2019 and 16256:2021 [78, 79]. Microdilution with spectrophotometric measurement was used to calculate MIC50 (minimal inhibitory concentration which decreased the microorganisms’ viability to 50%) values. Briefly, compounds were prepared 100× concentrated in DMSO, and during the whole experiment, they were diluted to 1× with TSB. Serial dilutions of tested compounds were made directly on plates at a concentration range of 0.5 to 256 µg/mL. Microorganisms were incubated for 24 h at 37 °C (bacteria) or 25 °C (yeast) on Petri dishes with TSA. The bacteria/yeast suspensions were prepared at a density 5 × 10^5 CFU/mL (for bacteria) or 0.5–2.5 × 10^5 CFU/mL (for yeast) with TSB. Also, appropriate controls were contained in the experiment: the positive control consisted of a specific strain in TSB, and the negative control was TSB alone. To ensure that used strains were not modified and were still responding to antibacterial/antifungal compounds established by EUCAST, additional tests were conducted with levofloxacin, gentamicin, and amphotericin B. Microplates were incubated on a shaker for 24 h at 37 ± 1 °C or 25 ± 1 °C for the bacteria and yeast strains, respectively. After the incubation, spectrophotometric measurement was performed at 580 nm. MIC50 was calculated by comparing the results obtained for experimental sets with positive controls. Next, 50 µL aliquots of 1% (m/v) TTC solution were added to each well. The plates were incubated on the shaker for 24 h at 37/25 °C. In living microbial cells, colourless TTC is converted into red formazan crystals, which allows for visual observation and MBC/MFC (minimal bactericidal/fungicidal concentration) value assessment.
In general terms: Broth dilution looks for growth in wells or tubes with falling amounts of substance.

In data set [4] the test system is K. pneumoniae 700603. The experiment in a line: Antimicrobial activity assay, microdilution. The settings on record: concentration range from 0.5 µg/mL to 256 µg/mL. Type of data set: cell-based, Klebsiella pneumoniae. On the procedure: as §1, §2
The subject of data set [5] is A. baumannii 19606. The experiment in a line: Antimicrobial activity assay, microdilution. The settings on record: concentration range from 0.5 µg/mL to 256 µg/mL. Type of data set: cell-based, Acinetobacter baumannii. As for the experimental part:
as §1, §2

For data set [6], the system named is E. faecalis 29212. The experiment in a line: Antimicrobial activity assay, microdilution. It counts as cell-based, Enterococcus faecalis. To be noted: concentration range from 0.5 µg/mL to 256 µg/mL. As for the experimental part: as §1, §2
In data set [7] the test system is C. albicans 10231. Put plainly: Antifungal activity assay, microdilution. It counts as cell-based, Candida albicans. The settings on record: concentration range from 0.5 µg/mL to 256 µg/mL. As for the experimental part: as §1, §2

For the compound `Cc1nc(-c2ccccc2)nc(Nc2ccc(F)cc2)c1C=Nc1cccc(Cl)c1` [compound 4b, 5-{[(3-chlorophenyl)imino]methyl}-N-(4-fluorophenyl)-6-methyl-2-phenylpyrimidin-4-amine], the “Q1 events (viable cells; viability), FDA/PI” value in data set [1] (at IC50, 24 h) is 60.95%; in data set [1] (at IC50, 48 h) it was 55.10%; in data set [1] (at IC50, 72 h), 44.99%. Besides, the cell death pathway entry in data set [2] was “irreversible cell injury and necrosis”. The “MIC and MBC/MFC activity” value in data set [3], in data set [4], in data set [5], in data set [6] and in data set [7] was “Neither MIC nor MBC/MFC activity was observed” in each case.
